Test results reported in US20260216057A1, “PHARMACEUTICAL COMPOSITIONS FOR HERPES VIRUS” (priority 2022, published 2026).

Assays:
[1] = Example 13: Compound 1 IV PK study in dog; format: in vivo, male non-naïve Beagle dogs; conditions: male, beagle, plasma, 0.15 mg/kg, read-out: Dog t1/2 (converted)
Description: The LC-MS methodology and conditions used to analyse Compound 1 in plasma samples from the intra-venous injection PK studies (Example 13) are described in Tables 5 to 7. A 0.15 mg/mL solution of Compound 1 in 10% DMSO, 10% Solutol HS15 and 80% Saline was prepared as follows: • 1) A stock solution of Compound 1 in DMSO was prepared. • 2) An equal volume of the Compound 1 stock solution and Solutol HS15 were combined and mixed. • 3) The above solution was diluted with normal saline to reach the target concentration. The final formulation was a clear solution. Male non-naïve beagles were used for the dog PK study. The animals had free access to food and water. […] At each time point, approximately 0.5 mL of whole blood was collected into K2EDTA tubes. Blood samples were put on ice and centrifuged at 2000 g for 5 min to obtain plasma samples within 15 minutes. Plasma samples were stored at approximately −70° C. until analyzed by LC-MS.

[2] = Example 17: Compound 1 (Form C) microsuspension and nanosuspension SC and IM PK study in rat; format: in vivo, male Sprague Dawley rats; conditions: for prolonged exposure for (length of the study): 20 mg/animal (~80 mg/kg), micro- and nano-suspensions (Form C), both formulations
Description: The LC-MS methodology and conditions used to analyse Compound 1 in rat plasma samples from the PK study described in Example 17 are given in Table 10.
An aqueous microsuspension of crystalline Compound 1 free form (crystalline Form C) in a 20 mg/mL PVP K30, 10 mg/mL poloxamer 188 and 50 mg/mL mannitol vehicle at a concentration of 200 mg/mL was prepared as follows: • 1) Crystalline Compound 1 (Form C) was jet milled to obtain microparticles (Dv90<10 μm). • 2) Jet milled material was dispersed in 20 mg/ml PVP K30+10 mg/ml Poloxamer 188+50 mg/ml mannitol to obtain a homogeneous suspension. • 3) The suspension was subjected to freeze drying to obtain a freeze-dried powder. • 4) Appropriate amounts of freeze-dried powder (based on assay) were weighed and added to water to obtain a 200 mg/ml suspension. • 5) The mixture was stirred for 5 minutes. • 6) The final dosing formulation was a homogenous white cloudy suspension.
An aqueous nano-suspension of crystalline Compound 1 free form (crystalline Form C) in a 20 mg/mL PVP K30, 10 mg/mL poloxamer 188 and 50 mg/mL mannitol vehicle at a concentration of 200 mg/mL was prepared as follows: • 1) 20 mg/mL crystalline Compound 1 (Form C) was dispersed into a solution of 2 mg/mL PVP K30 1.0 mg/mL poloxamer 188 and 5 mg/mL mannitol • 2) The suspension was subjected to high pressure homogenizer until the size was around 1 μm. • 3) After particle size reduction, the suspension was subjected to freeze drying to obtain a freeze-dried powder. • 4) The freeze-dried powder was reconstituted with water to obtain a 100 mg/mL suspension. • 5) The suspension was wet milled (10:1 0.1 mm zirconium oxide milling beads: Compound 1) at 900 rpm for 600 minutes to reduce particle size to nanosized particles (Dv90<200 nm). • 6) This nanosuspension was subjected to freeze drying to obtain a freeze-dried powder. • 7) Appropriate amounts of freeze-dried powder (based on assay) were weighed and added to water to obtain a 200 mg/ml suspension. • 8) The mixture was stirred for 10 minutes. • 9) The final dosing formulation was a homogenous white cloudy suspension.
Male Sprague Dawley (SD) rats with ~230-250 g body weight (aged 6-8 weeks) were used for the pharmacokinetic study. The animals had free access to food and water. The Compound 1 solution described above was administered via sub-cutaneous or intra-muscular injection to each animal group (n=3) with a dosing volume of 0.1 mL/animal (~0.4 mL/kg) to achieve a 20 mg/animal dose (~80 mg/kg).
At each time point, approximately 150 μL whole blood was collected in a K2EDTA tube via the jugular vein. Blood samples were put on ice and centrifuged at 2000 g for 5 min to obtain a plasma sample within 15 minutes. Plasma samples were stored at approximately −70° C. until analyzed by LC-MS.

[3] = Example 1: pritelivir aqueous suspension SC PK study in rat; format: in vivo, male Sprague Dawley rats; conditions: aqueous suspension (dihydrate), 33.33 mg/kg and 166.67 mg/kg, both dosing levels
Description: The LC-MS methodology and conditions used to analyse pritelivir in plasma samples from the PK studies described in Examples 1 to 5 are provided in Table 1.
An aqueous suspension of crystalline pritelivir free base (dihydrate) in a 0.9% NaCl+0.5% polysorbate 80 vehicle at concentrations of 10.0 mg/mL and 50.0 mg/mL was prepared as follows: • 1) Vehicle (0.9% w/w NaCl and 0.5% w/w polysorbate 80) was prepared by dissolving NaCl and polysorbate 80 in water. • 2) Appropriate amount of crystalline pritelivir free base (dihydrate) was weighed and added to the vehicle. • 3) Mixture was vortexed for 1 minute, stirred for 10 minutes and then sonicated for 15 minutes. • 4) The final dosing formulation was a homogenous white cloudy suspension.
Male Sprague Dawley (SD) rats with ~300 g body weight (ages 6-8 weeks) were used for the pharmacokinetic study. The animals had free access to food and water. The pritelivir suspensions described above were administered via sub-cutaneous injection to each animal group (n=3) with a dosing volume of 3.33 mL/kg to achieve 33.33 mg/kg and 166.67 mg/kg doses.
At each time point, approximately 200 μL whole blood was collected in a K2EDTA tube via the jugular vein. Blood samples were put on ice and centrifuged at 2000 g for 5 min to obtain a plasma sample within 15 minutes. Plasma samples were stored at approximately −70° C. until analyzed by LC-MS.

[4] = Wald et al. (2014); cited from earlier work

Row | half-life [1] [min] | prolonged exposure for (length of the study) ([2]; intramuscular) | prolonged exposure for (length of the study) ([2]; subcutaneous) | prolonged exposure out to (length of the study) [3] | Compound | plasma levels, intramuscular compared with subcutaneous injection ([2]; 20 mg/animal, micro- and nano-suspensions) | plasma levels, nanosuspension compared with microsuspension ([2]; intramuscular, 20 mg/animal) | adverse reactions at the injection sites ([2]; intramuscular, micro- and nano-suspensions) | plasma levels, nanosuspension compared with microsuspension ([2]; subcutaneous, 20 mg/animal, throughout the test period) | adverse reactions at the injection sites ([2]; subcutaneous, micro- and nano-suspensions) | human biological terminal half-life [4]
1 | 2090 | at least 600 hours | at least 600 hours |  | Cc1nc(N2CCCN(c3ccc(-c4cc(F)ccc4F)cc3)C2=O)sc1S(N)(=O)=O [Compound 1, 2-(3-(2′,5′-difluoro-[1,1′-biphenyl]-4-yl)-2-oxotetrahydropyrimidin-1(2H)-yl)-4-methylthiazole-5-sulfonamide] | plasma levels were higher than those achieved by these formulations when administered by subcutaneous injection | nanosuspension provided higher plasma levels than the microsuspension | no adverse reactions observed | nanosuspension provided higher plasma levels than the microsuspension | no adverse reactions observed | 
2 |  |  |  | at least 720 hours | Cc1nc(N(C)C(=O)Cc2ccc(-c3ccccn3)cc2)sc1S(N)(=O)=O [pritelivir, N-methyl-N-(4-methyl-5-sulfamoyl-1,3-thiazol-2-yl)-2-[4-(pyridin-2-yl)phenyl]acetamide] |  |  |  |  |  | up to 80 hours
